Reference: patent US6613322B2, “Method for treating a subject suffering from conditions associated with an extracellular zinc sphingomyelinase” (The Trustees of Columbia University in the City of New York, priority 1997, dated 2003)

What was measured:
[1] = tested on: S-SMase secretion by HUVECs; assay: Cytokine regulation of S-SMase secretion by HUVECs (SMase activity in conditioned media); type: cell-based, human; conditions: 18 h, IL-1β 5 ng/ml, interferon-γ 1000 units/ml
Protocol: Conditioned media (FIG. 23A) and cell homogenates (FIG. 23B) from these cells were then assayed for SMase activity in the presence or absence of 0.1 mM ZnCl2, respectively.
The cells were then washed 3 times with PBS and incubated for 24 h in 1 ml fresh serum-free media containing 0.2%6 BSA. This 24-h conditioned medium was collected for SMase assays.
Harvesting of Cells and Conditioned Media—Following the incubations described above and in the figure legends, cells were placed on ice and the serum-free conditioned media was removed. The cells were washed two times with ice-cold 0.25 M sucrose and scraped into 0.3 ml and 3.0 ml of this sucrose solution per 35-mm and 100-mm dishes, respectively. Unless indicated otherwise, the scraped cells were disrupted by sonication on ice using three 5-second bursts (Branson 450 Sonifier), and the cellular homogenates were assayed for total protein by the method of Lowry et al. (22) and for SMase activity as described below. The conditioned media were spun at 800×g for 5 min to pellet any contaminating cells and concentrated six-fold using a Centriprep 30 (Amicon; Beverly, Mass.) concentrator (molecular weight cut off=30,000).

[2] = molecular target: T1, internalized S-SMase (Homo sapiens, UniProt P17405); assay: SMase activity in homogenates of type A Niemann-Pick fibroblasts after internalization of FLAG-tagged S-SMase; type: biochemical; conditions: 0.1 mM ZnCl2, sonicated cell homogenates
T1 construct: FLAG; purchased AMGEN, Boulder, Colo
T1 sequence (P17405 47-631): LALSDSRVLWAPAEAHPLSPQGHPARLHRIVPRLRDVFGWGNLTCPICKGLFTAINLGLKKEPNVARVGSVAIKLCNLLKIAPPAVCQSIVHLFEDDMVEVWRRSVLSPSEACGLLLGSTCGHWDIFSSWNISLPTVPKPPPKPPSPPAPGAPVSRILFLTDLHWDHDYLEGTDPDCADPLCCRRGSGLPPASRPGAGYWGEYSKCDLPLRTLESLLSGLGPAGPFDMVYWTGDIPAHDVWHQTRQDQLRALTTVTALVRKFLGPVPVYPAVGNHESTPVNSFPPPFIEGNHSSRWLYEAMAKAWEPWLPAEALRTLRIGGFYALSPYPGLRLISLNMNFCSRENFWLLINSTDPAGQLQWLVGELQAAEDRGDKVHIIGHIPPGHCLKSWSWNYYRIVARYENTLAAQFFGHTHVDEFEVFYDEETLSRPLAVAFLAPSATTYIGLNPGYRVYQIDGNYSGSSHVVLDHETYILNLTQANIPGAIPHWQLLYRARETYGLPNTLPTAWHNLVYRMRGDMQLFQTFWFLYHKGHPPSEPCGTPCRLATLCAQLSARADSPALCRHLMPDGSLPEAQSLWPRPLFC
Protocol: FIG. 17. Zn^2+-dependency of S-SMase after internalization by type A Niemann-Pick cells. Skin fibroblasts from a patient with type A Niemann-Pick disease (NP-A Cells) were grown to 90% confluency in medium supplemented with 10% HI-FBS. The cells were then washed three times with PBS and incubated in serum-free media containing 0.2% BSA and 850 ng immunoaffinity-isolated FLAG-tagged S-SMase (Purified S-SMase)/ml at 37° C. for 16 h. The cell homogenate and incubation medium were then prepared as described in “Experimental Procedures”, and aliquots were assayed for SMase activity in the presence of either 5 mM EDTA (hatched bars) or 0.1 mM ZnCl2 (solid bars) for 2 h at 37° C. at pH 5.0. […]
SMase Assay—As previously described (Schissel et al., 1996), the standard 200-μl assay mixture consisted of up to 40 μl of sample (conditioned media or homogenized cells; see above) and a volume of assay buffer (0.1 M sodium acetate, pH 5.0) to bring the volume to 160 μl. […] The ceramide spots were scraped and directly counted to quantify [^3H]ceramide. Typically, the assay reactions contained approximately 20 μg of cellular homogenate protein and a volume of conditioned media derived from a quantity of cells equivalent to approximately 50 μg of cellular protein. […]

[3] = molecular target: T2, S-SMase (Homo sapiens, UniProt P17405); assay: SMase assay of endothelial cell (HUVEC) conditioned medium; type: biochemical; parameters: endogenous in cells; host or cells: primary HUVEC, 24-h serum-free conditioned medium
T2 sequence (P17405 47-631): T1 sequence (P17405 47-631)
Protocol: FIGS. 20A-B. Cultured human endothelial cells secrete abundant amounts of S-SMase.
Smase Assay—As previously described (15), the standard 200-μl assay mixture consisted of up to 40 μl of sample (conditioned media or homogenized cells; see above, and a volume of assay buffer (0.1 M sodium acetate, pH 5.0) to bring the volume to 160 μl. The reaction was initiated by the addition of 40 μl substrate (50 pmol [^3H]sphingomyelin) in 0.25 M sucrose containing 3% Triton X-100 (final concentration of Triton X-100 in the 200-μl assay mix=0.6%). When added, the final concentrations of EDTA and Zn^2+ were 5 mM and 0.1 mM, respectively, unless indicated otherwise. The assay mixtures were incubated at 37° C. for no longer than 3 h and then extracted by the method of Bligh and Dyer (37); the lower, organic phase was harvested, evaporated under N2, and fractionated by TLC using chloroform:methanol (95:5). The ceramide spots were scraped and directly counted to quantify [^3H]ceramide. Typically, our assay reactions contained approximately 20 μg of cellular homogenate protein and a volume of conditioned media derived from a quantity of cells equivalent to approximately 50 μg of cellular protein.

Row | Compound | increase of S-SMase activity / secretion (conditioned media) [1] | effect of added Zn2+ on cellular enzymatic activity [2] | stimulation of SMase secreted by endothelial cells by exogenous Zn2+ [3] | increase of enzymatic activity of S-SMase by Zn2+ ([3]; S-SMase from IL-1β-treated HUVECs) | increase of enzymatic activity of S-SMase by Zn2+ ([3]; S-SMase from untreated HUVECs)
1 | IL-1β: human recombinant interleukin-1β | ~3 fold |  |  |  | 
2 | [Cl-].[Cl-].[Zn+2] [Zn^2+, ZnCl2] |  | failed to increase | two-fold | 1.77±0.03 fold | 1.78±0.17 fold
